Test results published in patent US20260271931A1, “HERBICIDAL MIXTURES” (Bayer Aktiengesellschaft, priority 2023, published 2026).

Assays:
Type in all cases: in vivo
Eleusine indica (ELEIN) = test: Post-emergence action against weeds, greenhouse pot test, visual rating: Eleusine indica; details: for Herbicidal effect [%] on ELEIN 21 DAT: 3 g a.i./ha
Method: (§1) When the observed efficacies already exceed the formal sum total of the values of the tests with individual applications, they also exceed the expected value according to Colby, which is calculated using the formula below and is likewise regarded as an indication of synergism (cf. S. R. Colby; in Weeds 15 (1967) pp. 20 to 22):
(§2) where: • A=efficacy of the active ingredient (A) in % at an application rate of a [g a.i./ha]; • B=efficacy of the active ingredient (B) in % at an application rate of b [g a.i./ha]; • E^C=expected value of the effect of the combination (A)+(B) in % at the combined application rate a+b [g a.i./ha].
(§3) The observed values (E^A) from the experiments, given suitable low dosages, show an effect of the combinations exceeding the expected values according to Colby (E^C) (Δ).
(§4) Seeds of mono- and dicotyledonous weeds were placed in sandy loam in pots, covered with soil and grown in a greenhouse under good growth conditions (temperature, air humidity, water supply). Two to three weeks after sowing, the test plants were treated at the two- to four-leaf stage with the compositions of the invention. The compositions of the invention, formulated as spray powders or as emulsion concentrates, were sprayed onto the green parts of the plant in various dosages with an application rate equivalent to […] of water. After the test plants had been kept in the greenhouse under optimum growth conditions for 3 weeks, the activity of the preparations was rated visually in comparison to untreated controls.
(§5) 100% efficacy means complete control of the particular weed tested.
(§6) 0% efficacy means zero control of the particular weed tested.
(§7) Expected values according to Colby are reported under E.
(§8) The exceedance of the expected value E is given as Δ (=synergistic effect).
(§9) The rating period is reported in days after application (DAT).

Centaurea cyanus (CENCY) = test: Post-emergence action against weeds, greenhouse pot test, visual rating: Centaurea cyanus
Method: as §1, §2, §3, §4, §5, §6, §7, §8, §9

[1] = system: Brachiaria platyfylla (BRAPP); test: Post-emergence action against weeds, greenhouse pot test, visual rating: Brachiaria platyfylla
Method: as §1, §2, §3, §4, §5, §6, §7, §8, §9

Avena fatua (AVEFA) = test: Post-emergence action against weeds, greenhouse pot test, visual rating: Avena fatua; details: for pest or weed control at 4 g/ha: 4 g a.i./ha
[2] = system: Echinochloa crus-galli (ECHCG); test: Post-emergence action against weeds, greenhouse pot test, visual rating: Echinochloa crus-galli
[3] = system: Pharbitis purpurea (PHBPU); test: Post-emergence action against weeds, greenhouse pot test, visual rating: Pharbitis purpurea; details: 21 DAT
Method: as §1, §2, §3, §4, §5, §6, §7, §8, §9

Kochia scoparia (KCHSC) = test: Post-emergence action against weeds, greenhouse pot test, visual rating: Kochia scoparia
Bidens pilosa (BIDPI) = test: Post-emergence action against weeds, greenhouse pot test, visual rating: Bidens pilosa
[4] = system: Sorghum halepense (SORHA); test: Post-emergence action against weeds, greenhouse pot test, visual rating: Sorghum halepense; details: 3 g a.i./ha, 21 DAT
Method: as §1, §2, §3, §4, §5, §6, §7, §8, §9

Lolium rigidum (LOLRI) = test: Post-emergence action against weeds, greenhouse pot test, visual rating: Lolium rigidum; details: 21 DAT
[5] = Avena fatua, 240 h, 10 DAT, read-out: Herbicidal effect [%] on AVEFA 10 DAT

Compound: O=C(O)COc1ccc(Cl)cc1Cl [2,4-D]
- Herbicidal effect [%] on ELEIN 10 DAT (Eleusine indica (ELEIN); 40 g a.i./ha): 10%
- Herbicidal effect [%] on CENCY 21 DAT (Centaurea cyanus (CENCY); 40 g a.i./ha): 75%
- Herbicidal effect [%] on BRAPP 10 DAT ([1]; 40 g a.i./ha): 0%
- Herbicidal effect [%] on BRAPP 21 DAT ([1]; 40 g a.i./ha): 0%
- Herbicidal effect [%] on AVEFA 10 DAT (Avena fatua (AVEFA); 10 DAT, 40 g a.i./ha): 0%

Compound: CS(=O)(=O)c1cc(C(F)(F)F)ccc1C(=O)c1cnoc1C1CC1 [Isoxaflutole, isoxaflutole]
- Herbicidal effect [%] on ECHCG 10 DAT ([2]; 4 g a.i./ha): 60%
- Herbicidal effect [%] on ECHCG 21 DAT ([2]; 4 g a.i./ha): 40%
- Herbicidal effect [%] on PHBPU 21 DAT ([3]; 4 g a.i./ha): 10%
- pest or weed control at 4 g/ha (Avena fatua (AVEFA); [5]): 30%
- pest or weed control at 4 g/ha (Kochia scoparia (KCHSC); Bassia scoparia, post-emergence, 504 h, 4 g a.i./ha, read-out: Herbicidal effect [%] on KCHSC 21 DAT): 30%
- Herbicidal effect [%] on BIDPI 21 DAT (Bidens pilosa (BIDPI); 4 g a.i./ha): 40%

Compound: O=C(O)CNCP(=O)(O)O [Glyphosate, glyphosate]
- Herbicidal effect [%] on ECHCG 10 DAT ([2]; 30 g a.i./ha): 20%
- pest or weed control at 30 g/ha (Kochia scoparia (KCHSC); Bassia scoparia, post-emergence, 504 h, read-out: Herbicidal effect [%] on KCHSC 21 DAT): 0%

Compound: Cc1ccc2c(c1)[C@H](Nc1nc(N)nc(C(C)F)n1)[C@@H](C)C2 (stereo partly drawn) [Indaziflam, indaziflam]
- Herbicidal effect [%] on ECHCG 10 DAT ([2]; 3 g a.i./ha): 0%
- Herbicidal effect [%] on ELEIN 21 DAT (Eleusine indica (ELEIN)): 10%
- Herbicidal effect [%] on SORHA 21 DAT [4]: 10%
- Herbicidal effect [%] on CENCY 10 DAT (Centaurea cyanus (CENCY); 3 g a.i./ha): 20%
- Herbicidal effect [%] on CENCY 21 DAT (Centaurea cyanus (CENCY); 3 g a.i./ha): 10%
- Herbicidal effect [%] on AVEFA 10 DAT (Avena fatua (AVEFA); 10 DAT, 3 g a.i./ha): 0%
- Herbicidal effect [%] on KCHSC 10 DAT (Kochia scoparia (KCHSC); 3 g a.i./ha): 10%
- Herbicidal effect [%] on KCHSC 21 DAT (Kochia scoparia (KCHSC); 3 g a.i./ha): 20%
- Herbicidal effect [%] on BIDPI 21 DAT (Bidens pilosa (BIDPI); 3 g a.i./ha): 30%
- Herbicidal effect [%] on LOLRI 21 DAT (Lolium rigidum (LOLRI); 3 g a.i./ha): 0%

Compound: bicyclopyrone
- Herbicidal effect [%] on ELEIN 21 DAT (Eleusine indica (ELEIN)): 30%
- Herbicidal effect [%] on CENCY 10 DAT (Centaurea cyanus (CENCY); 3 g a.i./ha): 50%
- Herbicidal effect [%] on BIDPI 21 DAT (Bidens pilosa (BIDPI); 3 g a.i./ha): 10%

Compound: CS(=O)(=O)c1ccc(C(=O)C2C(=O)CCCC2=O)c([N+](=O)[O-])c1 [Mesotrione, mesotrione]
- pest or weed control at 4 g/ha (Eleusine indica (ELEIN); Eleusine indica, post-emergence, 504 h, 4 g a.i./ha, read-out: Herbicidal effect [%] on ELEIN 21 DAT): 10%
- Herbicidal effect [%] on CENCY 21 DAT (Centaurea cyanus (CENCY); 4 g a.i./ha): 40%
- pest or weed control at 4 g/ha ([1]; post-emergence, 504 h, 4 g a.i./ha, read-out: Herbicidal effect [%] on BRAPP 21 DAT): 0%
- pest or weed control at 4 g/ha (Avena fatua (AVEFA); [5]): 10%
- Herbicidal effect [%] on KCHSC 10 DAT (Kochia scoparia (KCHSC); 4 g a.i./ha): 30%
- pest or weed control at 4 g/ha (Lolium rigidum (LOLRI); Lolium rigidum, 504 h, 4 g a.i./ha, read-out: Herbicidal effect [%] on LOLRI 21 DAT): 0%

Compound: COC(=O)c1csc(C)c1S(=O)(=O)NC(=O)n1nc(OC)n(C)c1=O [Thiencarbazone-methyl]
- Herbicidal effect [%] on PHBPU 21 DAT ([3]; 0.33 g a.i./ha): 40%
- Herbicidal effect [%] on CENCY 21 DAT (Centaurea cyanus (CENCY); 0.33 g a.i./ha): 40%
- Herbicidal effect [%] on AVEFA 21 DAT (Avena fatua (AVEFA); 0.33 g a.i./ha): 88%
- Herbicidal effect [%] on LOLRI 21 DAT (Lolium rigidum (LOLRI); 0.33 g a.i./ha): 88%

Compound: CCS(=O)(=O)c1cccnc1S(=O)(=O)NC(=O)Nc1nc(OC)cc(OC)n1 [Rimsulfuron, rimsulfuron]
- Herbicidal effect [%] on ECHCG 21 DAT ([2]; 0.9 g a.i./ha): 90%
- pest or weed control at 0.9 g/ha (Eleusine indica (ELEIN); Eleusine indica, post-emergence, 504 h, 0.9 g a.i./ha, read-out: Herbicidal effect [%] on ELEIN 21 DAT): 40%
- Herbicidal effect [%] on PHBPU 21 DAT ([3]; 0.9 g a.i./ha): 10%
- Herbicidal effect [%] on AVEFA 21 DAT (Avena fatua (AVEFA); 0.9 g a.i./ha): 50%
- pest or weed control at 0.9 g/ha (Avena fatua (AVEFA); Avena fatua, 240 h, 10 DAT, 0.9 g a.i./ha, read-out: Herbicidal effect [%] on AVEFA 10 DAT): 60%

Compound: COc1c(Cl)ccc(-c2nc(C(=O)O)c(Cl)c(N)c2F)c1F [Florpyrauxifen, florpyrauxifen]
- Herbicidal effect [%] on PHBPU 21 DAT ([3]; 1 g a.i./ha): 10%
